The values below come from ChEMBL document CHEMBL4312043, “Discovery of Novel Neuraminidase Inhibitors by Structure-Based Virtual Screening, Structural Optimization, and Bioassay” (ACS Med Chem Lett, 2019).

In general, IC50 refers to the point on the concentration scale where inhibition reaches its midpoint.

The target of one test is Neuraminidase (Influenza A virus (A/Puerto Rico/8/1934(H1N1)), UniProt P03468). As to the kind of experiment: Inhibition of Influenza A virus H1N1 neuraminidase using MU-NANA as substrate preincubated for 10 mins followed by substrate addition and measured after 15 mins by fluorescence based assay.
Sequence of Neuraminidase (Influenza A virus (A/Puerto Rico/8/1934(H1N1)), UniProt P03468) (P03468 whole entry): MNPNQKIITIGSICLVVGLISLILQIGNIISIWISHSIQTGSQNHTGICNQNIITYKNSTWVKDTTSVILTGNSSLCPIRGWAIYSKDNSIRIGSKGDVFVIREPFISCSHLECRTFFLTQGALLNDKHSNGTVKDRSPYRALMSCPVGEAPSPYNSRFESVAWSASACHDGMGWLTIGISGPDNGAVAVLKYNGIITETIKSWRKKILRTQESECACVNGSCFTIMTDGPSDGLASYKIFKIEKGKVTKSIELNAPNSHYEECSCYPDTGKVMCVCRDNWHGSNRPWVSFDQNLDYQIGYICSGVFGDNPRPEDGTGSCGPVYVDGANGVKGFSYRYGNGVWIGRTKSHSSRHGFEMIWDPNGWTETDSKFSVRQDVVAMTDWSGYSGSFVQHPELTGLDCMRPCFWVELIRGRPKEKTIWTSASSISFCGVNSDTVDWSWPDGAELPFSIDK
For `CC1=NN(c2cccc(C(=O)O)c2)C(=O)/C1=C\c1ccc(-c2cc(Cl)ccc2C(=O)O)o1`, it took 37 µM to reach half-maximal inhibition (IC50).

Target in another test: not listed separately
As to the kind of experiment: Inhibition of clostridium neuraminidase using fluorescent substrate preincubated for 2 mins followed by substrate addition and measured after 30 mins by fluorescence based microplate reader analysis.
For the compound `COc1cc(/C=N\NC(=O)c2ccc(Cn3cc(Br)c([N+](=O)[O-])n3)o2)cc(OC)c1O`, inhibition was half-maximal at 12.9 µM (IC50).

On to `CCOC(=O)c1ccc(N/N=C/c2cc(Br)cc([N+](=O)[O-])c2O)cc1`, for which the IC50 stood at 16 µM. In the case of `COc1ccc(Br)cc1C(=O)N/N=C/c1ccc(Oc2ccc([N+](=O)[O-])cc2C#N)cc1`, the IC50 came to 7.71 µM. The same measure, in the same setting: under `O=C(N/N=C/c1ccc(OS(=O)(=O)c2ccccc2)cc1)c1cccc([N+](=O)[O-])c1` stands 8.44 µM. The same measure, in the same setting: under `O=C(N/N=C/c1cc([N+](=O)[O-])ccc1F)c1cc(O)c(O)c(O)c1` stands 36.6 µM. Regarding `O=C(N/N=C/c1cc(Cl)ccc1[N+](=O)[O-])c1cc(O)c(O)c(O)c1`, the IC50 amounted to 10.6 µM. For `O=C(N/N=C/c1cc([N+](=O)[O-])ccc1F)c1cc(O)cc(O)c1`, the IC50 came out at 3.97 µM. For the compound `CC(=O)Nc1ccc(/C=N/NC(=O)c2cc(O)cc(O)c2)cc1`, the half-inhibitory concentration (IC50) is 13.8 µM. As to `COc1cc(/C=N/NC(=O)c2cc(O)cc(O)c2)ccc1O`, the IC50 stood at 11.6 µM. The same measure, in the same setting: the figure for `O=C(N/N=C/c1ccc(O)c([N+](=O)[O-])c1)c1cc(O)cc(O)c1` is 0.21 µM; for `O=C(N/N=C/c1ccc(F)c([N+](=O)[O-])c1)c1cc(O)c(O)c(O)c1` it is 22.7 µM.

On to `COc1cc(/C=N/NC(=O)c2cc(O)cc(O)c2)cc(OC)c1O`, for which half-maximal inhibition (IC50) required 14.8 µM. On to `O=C(N/N=C/c1cc(Cl)ccc1[N+](=O)[O-])c1cc(O)cc(O)c1`, for which half-maximal inhibition (IC50) required 3.71 µM. As to `O=C(N/N=C/c1cc([N+](=O)[O-])ccc1O)c1cc(O)cc(O)c1`, inhibition was half-maximal at 1.92 µM (IC50). On the same count and under the same terms, the figure for `O=C(N/N=C/c1ccc(F)c([N+](=O)[O-])c1)c1cc(O)cc(O)c1` is 5.47 µM; for `O=C(N/N=C/c1ccc(O)c([N+](=O)[O-])c1)c1cc(O)c(O)c(O)c1` it is 9.67 µM; for `CCC(CC)O[C@@H]1C=C(C(=O)O)C[C@H](N)[C@H]1NC(C)=O` [OSELTAMIVIR CARBOXYLATE] it is 3.04 µM.
